Laboratory results as given in ChEMBL document CHEMBL3991601, “The target landscape of clinical kinase drugs” (Science, 2017).
Calls of active or inactive are those of the source.

How the values were obtained:
[1] = biological target: T1, Serine/threonine-protein kinase STK11 (Homo sapiens, UniProt Q15831)
T1 sequence (Q15831 whole entry): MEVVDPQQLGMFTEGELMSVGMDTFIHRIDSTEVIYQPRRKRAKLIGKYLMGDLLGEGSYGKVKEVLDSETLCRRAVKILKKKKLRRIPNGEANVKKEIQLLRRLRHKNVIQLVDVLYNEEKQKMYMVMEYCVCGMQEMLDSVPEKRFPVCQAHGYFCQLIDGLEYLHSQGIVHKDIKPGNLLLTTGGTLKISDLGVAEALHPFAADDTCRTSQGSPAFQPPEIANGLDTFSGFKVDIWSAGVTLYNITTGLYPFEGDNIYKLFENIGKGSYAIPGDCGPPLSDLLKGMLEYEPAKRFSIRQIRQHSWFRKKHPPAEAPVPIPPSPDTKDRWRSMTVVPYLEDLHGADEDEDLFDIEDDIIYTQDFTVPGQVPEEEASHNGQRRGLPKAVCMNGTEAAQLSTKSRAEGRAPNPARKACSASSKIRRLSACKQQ

[2] = biological target: Aurora kinase B (Homo sapiens, UniProt Q96GD4)
Sequence of Aurora kinase B (Q96GD4 whole entry): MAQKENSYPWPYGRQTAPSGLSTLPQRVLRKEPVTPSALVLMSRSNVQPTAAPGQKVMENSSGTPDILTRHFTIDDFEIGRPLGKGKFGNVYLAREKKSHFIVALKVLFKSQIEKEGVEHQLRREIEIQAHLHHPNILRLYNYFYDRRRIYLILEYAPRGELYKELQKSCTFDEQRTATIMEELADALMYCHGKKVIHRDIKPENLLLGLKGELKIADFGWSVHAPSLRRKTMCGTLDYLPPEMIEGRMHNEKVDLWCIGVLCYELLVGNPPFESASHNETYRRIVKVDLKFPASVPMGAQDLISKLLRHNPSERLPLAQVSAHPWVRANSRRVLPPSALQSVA

[3] = biological target: Glycogen synthase kinase-3 alpha (Homo sapiens, UniProt P49840)
Sequence of Glycogen synthase kinase-3 alpha (P49840 whole entry): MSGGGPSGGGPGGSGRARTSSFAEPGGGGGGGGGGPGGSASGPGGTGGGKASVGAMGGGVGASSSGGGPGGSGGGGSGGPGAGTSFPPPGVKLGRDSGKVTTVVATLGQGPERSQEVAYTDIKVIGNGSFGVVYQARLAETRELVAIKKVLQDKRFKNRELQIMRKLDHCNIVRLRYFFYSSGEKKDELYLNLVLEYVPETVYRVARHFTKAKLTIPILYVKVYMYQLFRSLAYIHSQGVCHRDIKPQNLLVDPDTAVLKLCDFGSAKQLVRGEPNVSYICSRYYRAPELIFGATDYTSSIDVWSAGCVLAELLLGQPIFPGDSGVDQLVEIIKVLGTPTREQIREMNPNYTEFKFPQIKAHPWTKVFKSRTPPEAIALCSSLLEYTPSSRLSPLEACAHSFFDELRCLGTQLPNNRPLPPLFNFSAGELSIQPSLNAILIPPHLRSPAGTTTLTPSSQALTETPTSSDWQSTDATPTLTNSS

[4] = biological target: T2, Ephrin type-B receptor 2 (Homo sapiens, UniProt P29323)
T2 sequence (P29323 whole entry): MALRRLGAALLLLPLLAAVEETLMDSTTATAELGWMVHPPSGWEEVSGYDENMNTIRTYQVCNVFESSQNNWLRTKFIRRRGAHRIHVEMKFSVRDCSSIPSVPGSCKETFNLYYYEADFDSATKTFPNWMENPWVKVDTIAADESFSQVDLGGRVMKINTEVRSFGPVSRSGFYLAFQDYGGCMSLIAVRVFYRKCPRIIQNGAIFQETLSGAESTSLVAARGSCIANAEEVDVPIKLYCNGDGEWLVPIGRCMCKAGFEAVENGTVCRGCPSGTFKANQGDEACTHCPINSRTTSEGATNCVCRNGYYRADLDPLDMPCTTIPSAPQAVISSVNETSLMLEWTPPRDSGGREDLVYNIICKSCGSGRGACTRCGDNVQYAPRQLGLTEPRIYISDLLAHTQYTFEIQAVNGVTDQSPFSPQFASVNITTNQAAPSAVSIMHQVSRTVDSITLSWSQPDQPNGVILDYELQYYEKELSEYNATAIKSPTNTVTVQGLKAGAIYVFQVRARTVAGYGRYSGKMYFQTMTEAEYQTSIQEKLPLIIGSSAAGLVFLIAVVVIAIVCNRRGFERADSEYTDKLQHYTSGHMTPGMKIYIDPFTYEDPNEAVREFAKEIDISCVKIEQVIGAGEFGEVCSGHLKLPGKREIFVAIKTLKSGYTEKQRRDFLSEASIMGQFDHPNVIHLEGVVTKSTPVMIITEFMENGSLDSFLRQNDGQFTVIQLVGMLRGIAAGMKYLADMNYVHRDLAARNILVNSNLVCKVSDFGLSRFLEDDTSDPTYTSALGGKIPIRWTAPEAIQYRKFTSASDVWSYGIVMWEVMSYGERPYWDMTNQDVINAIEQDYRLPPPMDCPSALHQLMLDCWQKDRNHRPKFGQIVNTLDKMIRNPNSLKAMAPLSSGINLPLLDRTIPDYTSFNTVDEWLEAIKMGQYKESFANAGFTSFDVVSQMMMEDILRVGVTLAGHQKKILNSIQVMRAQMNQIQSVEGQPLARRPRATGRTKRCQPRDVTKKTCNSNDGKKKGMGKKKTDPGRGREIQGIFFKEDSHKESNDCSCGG

[5] = biological target: T3, Phenylalanine--tRNA ligase beta subunit (Homo sapiens, UniProt Q9NSD9)
T3 sequence (Q9NSD9 whole entry): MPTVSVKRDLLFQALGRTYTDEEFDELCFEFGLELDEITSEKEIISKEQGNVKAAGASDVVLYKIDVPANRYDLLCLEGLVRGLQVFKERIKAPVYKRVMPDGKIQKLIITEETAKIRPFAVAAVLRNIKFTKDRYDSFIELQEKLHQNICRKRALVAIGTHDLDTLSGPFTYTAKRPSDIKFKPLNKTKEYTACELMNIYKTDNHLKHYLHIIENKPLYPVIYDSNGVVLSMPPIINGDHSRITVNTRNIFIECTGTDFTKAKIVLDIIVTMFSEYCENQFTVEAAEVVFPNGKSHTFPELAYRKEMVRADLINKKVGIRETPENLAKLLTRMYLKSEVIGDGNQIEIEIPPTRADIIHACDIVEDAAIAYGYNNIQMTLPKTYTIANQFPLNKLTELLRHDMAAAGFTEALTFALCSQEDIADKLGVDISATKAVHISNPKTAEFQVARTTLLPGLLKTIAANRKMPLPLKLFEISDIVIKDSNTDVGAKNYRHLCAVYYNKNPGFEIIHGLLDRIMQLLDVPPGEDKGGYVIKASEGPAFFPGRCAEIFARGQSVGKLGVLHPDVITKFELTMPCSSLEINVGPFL

[6] = biological target: Deoxycytidine kinase (Homo sapiens, UniProt P27707)
Sequence of Deoxycytidine kinase (P27707 whole entry): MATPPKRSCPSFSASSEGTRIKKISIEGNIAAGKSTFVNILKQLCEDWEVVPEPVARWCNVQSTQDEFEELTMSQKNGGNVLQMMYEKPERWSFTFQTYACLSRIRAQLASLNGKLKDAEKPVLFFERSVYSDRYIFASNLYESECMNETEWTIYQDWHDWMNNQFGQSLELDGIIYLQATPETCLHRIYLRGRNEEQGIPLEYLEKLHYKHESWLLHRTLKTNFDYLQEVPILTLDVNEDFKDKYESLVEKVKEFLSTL
Further: in the data inactive means no Kd found up to 30 µM.

Kd [1]	Kd [2]	Kd [3]	Kd [4]	Kd [5]	Kd [6]	Compound
> 30 µM (inactive)	> 30 µM (inactive)	> 30 µM (inactive)	> 30 µM (inactive)	> 30 µM (inactive)	> 30 µM (inactive)	CC(=O)Nc1cccc(-n2c(=O)n(C3CC3)c(=O)c3c(Nc4ccc(I)cc4F)n(C)c(=O)c(C)c32)c1 [TRAMETINIB]
> 30 µM (inactive)	> 30 µM (inactive)	> 30 µM (inactive)	> 30 µM (inactive)	> 30 µM (inactive)	> 30 µM (inactive)	CN1CCC(CNc2ccc3ncc(-c4cccc(OC(F)(F)F)c4)n3n2)CC1 [SGI-1776]
> 30 µM (inactive)	> 30 µM (inactive)	> 30 µM (inactive)	> 30 µM (inactive)	> 30 µM (inactive)	> 30 µM (inactive)	O=c1sn(-c2cccc3ccccc23)c(=O)n1Cc1ccccc1 [TIDEGLUSIB]
> 30 µM (inactive)	> 30 µM (inactive)	> 30 µM (inactive)	> 30 µM (inactive)	> 30 µM (inactive)	> 30 µM (inactive)	COc1cc(OC)c(/C=C/S(=O)(=O)Cc2ccc(OC)c(NCC(=O)O)c2)c(OC)c1 [RIGOSERTIB]
> 30 µM (inactive)	> 30 µM (inactive)	> 30 µM (inactive)	> 30 µM (inactive)	> 30 µM (inactive)	> 30 µM (inactive)	CN(C)C(=O)c1cc2cnc(Nc3ccc(N4CCNCC4)cn3)nc2n1C1CCCC1 [RIBOCICLIB]
> 30 µM (inactive)	> 30 µM (inactive)	> 30 µM (inactive)	> 30 µM (inactive)	> 30 µM (inactive)	> 30 µM (inactive)	CC[C@H](Nc1ncnc2[nH]cnc12)c1nc2cccc(F)c2c(=O)n1-c1ccccc1 [IDELALISIB]
0.003 µM	0.641 µM (active)	5.19 µM (active)	> 30 µM (inactive)	> 30 µM (inactive)	> 30 µM (inactive)	C1=C/COCc2cc(ccc2OCCN2CCCC2)Nc2nccc(n2)-c2cccc(c2)COC/1 [PACRITINIB]
> 30 µM (inactive)	> 30 µM (inactive)	> 30 µM (inactive)	> 30 µM (inactive)	> 30 µM (inactive)	> 30 µM (inactive)	Cn1cc(-c2ccc3nnc(C(F)(F)c4ccc5ncccc5c4)n3n2)cn1 [JNJ-38877605]
> 30 µM (inactive)	> 30 µM (inactive)	> 30 µM (inactive)	2.28 µM	> 30 µM (inactive)	> 30 µM (inactive)	CNC(=O)CN1CCC(Oc2cc3c(Nc4cccc(Cl)c4F)ncnc3cc2OC)CC1 [SAPITINIB]
> 30 µM (inactive)	> 30 µM (inactive)	> 30 µM (inactive)	> 30 µM (inactive)	> 30 µM (inactive)	> 30 µM (inactive)	CC[C@@H]1C(=O)N(C)c2cnc(Nc3ccc(C(=O)N[C@H]4CC[C@H](N5CCN(CC6CC6)CC5)CC4)cc3OC)nc2N1C(C)C [VOLASERTIB]
> 30 µM (inactive)	> 30 µM (inactive)	> 30 µM (inactive)	> 30 µM (inactive)	> 30 µM (inactive)	> 30 µM (inactive)	C[C@@H]1CN(Cc2ccc(F)cc2)[C@@H](C)CN1C(=O)c1cc2c(C(=O)C(=O)N(C)C)cn(C)c2cc1Cl [TALMAPIMOD]
> 30 µM (inactive)	> 30 µM (inactive)	> 30 µM (inactive)	> 30 µM (inactive)	> 30 µM (inactive)	> 30 µM (inactive)	Cn1cc(-c2ccc(F)c(C(F)(F)F)c2)nc1C1CCN(c2ncnc3[nH]ncc23)CC1 [LY-2584702]

Second part, the molecule before the results:

Compound	Kd [1]	Kd [2]	Kd [3]	Kd [4]	Kd [5]	Kd [6]
CCN1CCN(Cc2ccc(-c3cc4c(N[C@H](C)c5ccccc5)ncnc4[nH]3)cc2)CC1 [AEE-788]	> 30 µM (inactive)	> 30 µM (inactive)	> 30 µM (inactive)	> 30 µM (inactive)	> 30 µM (inactive)	> 30 µM (inactive)
O=C1NC(=O)/C(=C/c2ccc3nccc(-c4ccncc4)c3c2)S1 [GSK-1059615]	> 30 µM (inactive)	> 30 µM (inactive)	> 30 µM (inactive)	> 30 µM (inactive)	> 30 µM (inactive)	> 30 µM (inactive)
CN1CC[C@@H](c2c(O)cc(O)c3c(=O)cc(-c4ccccc4Cl)oc23)[C@@H]1CO	> 30 µM (inactive)	> 30 µM (inactive)	> 30 µM (inactive)	> 30 µM (inactive)	> 30 µM (inactive)	> 30 µM (inactive)
COC(=O)N[C@@H](C)CNc1nccc(-c2cn(C(C)C)nc2-c2cc(Cl)cc(NS(C)(=O)=O)c2F)n1 [ENCORAFENIB]	> 30 µM (inactive)	> 30 µM (inactive)	5.26 µM (active)	> 30 µM (inactive)	> 30 µM (inactive)	> 30 µM (inactive)
COCCNCc1ccc(-c2cc3nccc(Oc4ccc(NC(=S)NC(=O)Cc5ccc(F)cc5)cc4F)c3s2)nc1 [GLESATINIB]	> 30 µM (inactive)	> 30 µM (inactive)	> 30 µM (inactive)	> 30 µM (inactive)	> 30 µM (inactive)	> 30 µM (inactive)
N[C@@H]1CCCN(c2c(/C=C3\SC(=O)NC3=O)cccc2-c2ccccc2)C1	> 30 µM (inactive)	> 30 µM (inactive)	> 30 µM (inactive)	> 30 µM (inactive)	> 30 µM (inactive)	> 30 µM (inactive)
Cn1ncc(Cl)c1-c1cc(C(=O)N[C@H](CN)Cc2cccc(F)c2)sc1Cl [AFURESERTIB]	> 30 µM (inactive)	> 30 µM (inactive)	> 30 µM (inactive)	> 30 µM (inactive)	> 30 µM (inactive)	> 30 µM (inactive)
Cc1cc(-c2cc(O)ccc2Cl)cc2nnc(Nc3ccc(OCCN4CCCC4)cc3)nc12	> 30 µM (inactive)	> 30 µM (inactive)	> 30 µM (inactive)	0.002 µM (active)	> 30 µM (inactive)	> 30 µM (inactive)
O=C(c1ccc(F)c(F)c1Nc1ccc(I)cc1F)N1CC(O)([C@@H]2CCCCN2)C1 [COBIMETINIB]	> 30 µM (inactive)	> 30 µM (inactive)	> 30 µM (inactive)	> 30 µM (inactive)	> 30 µM (inactive)	> 30 µM (inactive)
CN1CCC(COc2cnc(-c3cccc(Cn4nc(-c5cccc(C#N)c5)ccc4=O)c3)nc2)CC1 [TEPOTINIB]	> 30 µM (inactive)	> 30 µM (inactive)	> 30 µM (inactive)	> 30 µM (inactive)	> 30 µM (inactive)	> 30 µM (inactive)
CO[C@H]1C[C@@H]2CC[C@@H](C)[C@@](O)(O2)C(=O)C(=O)N2CCCC[C@H]2C(=O)O[C@H]([C@H](C)C[C@@H]2CC[C@@H](OCCO)[C@H](OC)C2)CC(=O)[C@H](C)/C=C(\C)[C@@H](O)[C@@H](OC)C(=O)[C@H](C)C[C@H](C)/C=C/C=C/C=C/1C [EVEROLIMUS]	> 30 µM (inactive)	> 30 µM (inactive)	> 30 µM (inactive)	> 30 µM (inactive)	> 30 µM (inactive)	> 30 µM (inactive)
